Earlier results in US7678905B2, “Aminotetrahydropyrans as dipeptidyl peptidase-IV inhibitors for the treatment or prevention of diabetes” (Merck Sharp & Dohme Corp., priority 2006, dated 2010).

Assays:
[1] = system: hematopoiesis; details: mouse, cyclophosphamide-induced neutropenia
[2] = system: cardiac allograft; details: rats; survival doubled from day 7
[3] = system: GRF degradation in plasma

## CC(C)[C@H](N)C(=O)N1CCC[C@H]1B(O)O [Val-Boro-Pro]
[1]
  effect on hematopoiesis: stimulated hematopoiesis

## CC(C)N1CCC(c2ccccc2)(c2ccccc2)CC1 [Prodipine, Pro-Pro-diphenyl-phosphonate]
[2]
  cardiac allograft survival: 14 day

## diprotin A
[3]
  degradation of GRF to GRF[3-44] in plasma: prevented
